Experimental data from BigSolDB 2.1.

CCC(C)n1ncn(-c2ccc(N3CCN(c4ccc(OC[C@H]5CO[C@](Cn6cncn6)(c6ccc(Cl)cc6Cl)O5)cc4)CC3)cc2)c1=O (mixture of isomers)
solubility (mole fraction)
Conditions | 283.15 K | 288.15 K | 293.15 K | 298.15 K | 303.15 K | 308.15 K | 313.15 K | 318.15 K | 323.15 K
in DMSO | 0.000184 | 0.000237 | 0.000309 | 0.000391 | 0.000469 | 0.000579 | 0.000707 | 0.000888 | 0.00107
in ethanol | 6.88e-06 | 9.34e-06 | 1.26e-05 | 1.66e-05 | 2.16e-05 | 2.83e-05 | 3.73e-05 | 5.03e-05 | 6.36e-05
in isopropanol | 8.3e-06 | 1.04e-05 | 1.3e-05 | 1.57e-05 | 2.02e-05 | 2.48e-05 | 3.02e-05 | 3.65e-05 | 4.37e-05
in methanol | 1.64e-05 | 2.14e-05 | 2.81e-05 | 3.7e-05 | 4.9e-05 | 6.17e-05 | 7.78e-05 | 9.7e-05 | 0.00012
in water | 4.17e-09 | 6.55e-09 | 1.03e-08 | 1.55e-08 | 2.6e-08 | 3.69e-08 | 5.55e-08 | 8.36e-08 | 1.21e-07
